Experimental data taken from US4500531A, “Therapeutical use of (1-cinnamoyl or 1-phenethylcarbonyl) piperazine derivatives” (priority 1982, dated 1985).
Counter-ions that a name gives are not always drawn. Like-named read-outs stand apart in the source and are kept apart here.

Legend:
[1] = cited from earlier work; for vasodilatory activity: earlier patents and literature; for pharmacological activity as previously considered: up to the present, in the pharmacological field, earlier literature
[2] = test of the mnesic retention of exploratory activity (habituation); format: in vivo, SWISS-WEBSTER male mice; settings: Mus musculus, ip, 168 h, read-out: % of the diminution of the exploratory activity; for inhibition in vivo at 10 mg/kg: dose 10 mg/kg i.p.
[3] = approximate acute toxicity (method of MILLER and TAINTER); settings: in vivo; for mortality: read-out: lethality
Procedure: The approximate acute toxicity is determined according to the method described by MILLER and TAINTER in Proc. Soc. Exp. Biol. Med. 57, 261, (1944).

[4] = pharmacological study: stimulation or protection of cerebral functions; format: in vivo; settings: thorough pharmacological study
Procedure: The stimulating or protecting activities have been shown particularly by the test of the mnesic retention of exploratory activity carried out in accordance with the following method: in an ACTIMETRE APELAB apparatus (BOISSIER and SIMON, Arch. Inter. Pharmacodyn. 158, 212, (1965), the exploratory activity of SWISS-WEBSTER male mice was measured for 5 minutes, then the animals were given an intraperitoneal injection or oral administration of the derivatives of formula (I), the salts thereof or of physiological serum. After a week, the exploratory activity of the treated animals is again measured and the effect of the mnesic retention is measured by an habituation, i.e., by a statistically significant reduction (t of STUDENT in paired groups) of the exploratory activity.

[5] = dose 3 mg/kg i.p., retest after one week, mice

COc1cc(/C=C/C(=O)N2CCN(CC(=O)NC(C)C)CC2)cc(OC)c1O [drawing 16]
vasodilatory activity [1]: coronary vasodilator

CCOC(=O)CN1CCN(C(=O)/C=C/c2cc(OC)c(OC)c(OC)c2)CC1
vasodilatory activity [1]: peripheral and coronary vasodilators

COc1cc(/C=C/C(=O)N2CCN(CC(=O)NC(C)C)CC2)cc(OC)c1O [compound 69]
inhibition in vivo at 3 mg/kg [2, 5]: 23.8% | LD50 ([3]; po): 2000 mg/kg | mortality ([3]; po, 2000 mg/kg p.o.): 0%

COc1cc(/C=C/C(=O)N2CCN(CC(=O)N3CCCCCCC3)CC2)cc(OC)c1OC [compound 67]
inhibition in vivo at 3 mg/kg [2, 5]: 26.4% | LD50 ([3]; iv): 225 mg/kg

COc1cc(/C=C\C(=O)N2CCN(CC(=O)N3CCCC3)CC2)cc(OC)c1OC [drawing 13]
pharmacological activity as previously considered [1]: non-active

COc1cc(CCC(=O)N2CCN(CC(=O)NC(C)C)CC2)cc(OC)c1OC [compound 70]
inhibition in vivo at 30 mg/kg ([2]; dose 30 mg/kg i.p., retest after one week, mice): 16.2% | LD50 ([3]; po): 2000 mg/kg | mortality ([3]; po, 2000 mg/kg p.o.): 0%

COc1cc(/C=C\C(=O)N2CCN(CC(=O)N3CCCC3)CC2)cc(OC)c1OC [compound 72]
inhibition in vivo at 3 mg/kg [2]: 21%

COc1cc(/C=C/C(=O)N2CCN(CC(=O)O)CC2)cc(OC)c1OC [compound 71]
inhibition in vivo at 1 mg/kg ([2]; dose 1 mg/kg i.p., retest after one week, mice): 31.9% | LD50 ([3]; po): 1000 mg/kg | mortality ([3]; po, 1000 mg/kg p.o.): 0%

COc1cc(/C=C/C(=O)N2CCN(CC(=O)N3CCCC3)CC2)cc(OC)c1OC
vasodilatory activity [1]: peripheral and coronary vasodilators

COc1cc(/C=C/C(=O)N2CCN(CC(=O)N3CCCCC3)CC2)cc(OC)c1OC [compound 66]
inhibition in vivo at 3 mg/kg [2, 5]: 35.2% | LD50 ([3]; po): 2250 mg/kg

COc1cc(/C=C\C(=O)N2CCN(CC(=O)N3CCCC3)CC2)cc(OC)c1OC [Code Number 72, cis 1-(3,4,5-trimethoxy)cinnamoyl 4-pyrrolidinocarbonylmethyl)piperazine, oxalate]
activity in the stimulation or protection of cerebral functions [4]: important activities in the stimulation or protection of cerebral functions | pharmacological activity as previously considered ([1]; listed as Ib): inactive

COc1cc(/C=C/C(=O)N2CCN(CC(=O)NC(C)C)CC2)cc(OC)c1OC [compound 65]
inhibition in vivo at 10 mg/kg ([2]; retest after one week, mice): 17.9% | LD50 ([3]; iv): 475 mg/kg

COc1cc(/C=C/C(=O)N2CCN(CC(=O)O)CC2)cc(OC)c1OC [drawing 11]
pharmacological activity as previously considered [1]: non-active

COc1ccc(CCN(C)C(=O)CN2CCN(C(=O)/C=C/c3cc(OC)c(OC)c(OC)c3)CC2)cc1OC [compound 68]
inhibition in vivo at 10 mg/kg ([2]; retest after one week, mice): 15.8% | LD50 ([3]; iv): 200 mg/kg

COc1cc(/C=C/C(=O)N2CCN(CC(=O)O)CC2)cc(OC)c1OC [Code Number 71, trans 1-(3,4,5-trimethoxy)cinnamoyl 4-hydroxycarbonylmethyl piperazine, hydrochloride]
activity in the stimulation or protection of cerebral functions [4]: important activities in the stimulation or protection of cerebral functions | pharmacological activity as previously considered ([1]; listed as Ia, hydrochloride): inactive

COc1cc(CCC(=O)N2CCN(CC(=O)NC(C)C)CC2)cc(OC)c1OC [drawing 15]
vasodilatory activity [1]: peripheral and coronary vasodilators
